Measurements: the supplement of paper PMC11451515

Test system: NOMO1
Assay: cell viability relative to DMSO control; higher = less cytotoxic
Conditions: 48 h
Summary of the method: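 Before seeding, each leukemia line was adapted for at least four passages in each medium. NOMO1 or SEM cells (500 cells/well) and P12-Ichikawa cells (1000 cells/well) went into 1536-well plates at 5 μl, then received library compounds in DMSO by pin dosing across 11 threefold concentrations, 47 μM to 0.79 nM. Readout was CellTiter-Glo One luminescence after 48 h at 37°C, and viability is given as a per-plate percentage of DMSO wells, with cell-free wells as background.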

[1] = HPLM + 10% dialyzed FBS, 0.000781 µM
[2] = HPLM + 10% dialyzed FBS, 0.00234 µM
[3] = HPLM + 10% dialyzed FBS, 0.00702 µM
[4] = HPLM + 10% dialyzed FBS, 0.0211 µM
[5] = HPLM + 10% dialyzed FBS, 0.0632 µM
[6] = HPLM + 10% dialyzed FBS, 0.19 µM
[7] = HPLM + 10% dialyzed FBS, 0.569 µM
[8] = HPLM + 10% dialyzed FBS, 1.71 µM
[9] = HPLM + 10% dialyzed FBS, 5.12 µM
[10] = HPLM + 10% dialyzed FBS, 15.4 µM
[11] = HPLM + 10% dialyzed FBS, 46.1 µM
[12] = RPMI 5 mM glucose + 10% FBS, 0.000781 µM
[13] = RPMI 5 mM glucose + 10% FBS, 0.00234 µM
[14] = RPMI 5 mM glucose + 10% FBS, 0.00702 µM
[15] = RPMI 5 mM glucose + 10% FBS, 0.0211 µM
[16] = RPMI 5 mM glucose + 10% FBS, 0.0632 µM
[17] = RPMI 5 mM glucose + 10% FBS, 0.19 µM
[18] = RPMI 5 mM glucose + 10% FBS, 0.569 µM
[19] = RPMI 5 mM glucose + 10% FBS, 1.71 µM
[20] = RPMI 5 mM glucose + 10% FBS, 5.12 µM
[21] = RPMI 5 mM glucose + 10% FBS, 15.4 µM
[22] = RPMI 5 mM glucose + 10% FBS, 46.1 µM
[23] = RPMI 5 mM glucose + 10% dialyzed FBS, 0.000781 µM
[24] = RPMI 5 mM glucose + 10% dialyzed FBS, 0.00234 µM
[25] = RPMI 5 mM glucose + 10% dialyzed FBS, 0.00702 µM
[26] = RPMI 5 mM glucose + 10% dialyzed FBS, 0.0211 µM
[27] = RPMI 5 mM glucose + 10% dialyzed FBS, 0.0632 µM
[28] = RPMI 5 mM glucose + 10% dialyzed FBS, 0.19 µM
[29] = RPMI 5 mM glucose + 10% dialyzed FBS, 0.569 µM
[30] = RPMI 5 mM glucose + 10% dialyzed FBS, 1.71 µM
[31] = RPMI 5 mM glucose + 10% dialyzed FBS, 5.12 µM
[32] = RPMI 5 mM glucose + 10% dialyzed FBS, 15.4 µM
[33] = RPMI 5 mM glucose + 10% dialyzed FBS, 46.1 µM

Structure (SMILES)	cell viability [1]	cell viability [2]	cell viability [3]	cell viability [4]	cell viability [5]	cell viability [6]	cell viability [7]	cell viability [8]	cell viability [9]	cell viability [10]	cell viability [11]	cell viability [12]	cell viability [13]	cell viability [14]	cell viability [15]	cell viability [16]	cell viability [17]	cell viability [18]	cell viability [19]	cell viability [20]	cell viability [21]	cell viability [22]	cell viability [23]	cell viability [24]	cell viability [25]	cell viability [26]	cell viability [27]	cell viability [28]	cell viability [29]	cell viability [30]	cell viability [31]	cell viability [32]	cell viability [33]
CC(C)(C)NCC(O)c1ccc(O)c(CO)c1 (centres undefined)	100%	109%	109%	132%	119%	114%	107%	70.5%	55.5%	47.8%	44.7%	102%	98.3%	105%	106%	112%	99.9%	107%	79.2%	78.1%	64.7%	51.4%	102%	109%	115%	114%	110%	110%	92.8%	76.7%	65.3%	70.7%	47%
Cc1ccc(C(=O)Nc2ccc([S+](=O)([O-])O)c3cc([S+](=O)([O-])O)cc([S+](=O)([O-])O)c23)cc1NC(=O)c1cccc(NC(=O)Nc2cccc(C(=O)Nc3cc(C(=O)Nc4ccc([S+](=O)([O-])O)c5cc([S+](=O)([O-])O)cc([S+](=O)([O-])O)c45)ccc3C)c2)c1	95.4%	93.6%	96.9%	90.1%	91.5%	71.9%	69.3%	73.6%	40.8%	37.1%	38.4%	89.4%	83.9%	107%	89.7%	90.4%	85.9%	84.7%	90.4%	75.6%	69%	62.2%	91.9%	91%	93.1%	101%	76.9%	85.8%	87.6%	88.9%	76.9%	56.3%	52.5%
N#Cc1c(N(CC(=O)[O-])CC(=O)[O-])sc(C(=O)[O-])c1CC(=O)[O-].O.O.O.O.O.O.O.[Sr+2].[Sr+2]	113%	123%	150%	130%	137%	129%	148%	123%	138%	124%	112%																						
Nc1ncnc2nc(-c3ccc(N4CCOCC4)nc3)cc(-c3cccc(Br)c3)c12												108%	107%	116%	121%	111%	118%	122%	115%	114%	106%	107%	108%	127%	121%	111%	106%	120%	110%	117%	116%	106%	120%
CCOC(=O)c1c(CSc2ccccc2)n(C)c2cc(Br)c(O)c(CN(C)C)c12	129%	121%	114%	133%	127%	128%	130%	120%	128%	120%	104%												119%	119%	124%	129%	114%	124%	124%	129%	108%	92.8%	69.1%
COc1c(N2C[C@@H]3CCCN[C@@H]3C2)c(F)cc2c(=O)c(C(=O)O)cn(C3CC3)c12.Cl.O	118%	115%	103%	104%	100%	87.2%	82.6%	101%	92.4%	80.5%	87.5%	92.2%	94.1%	103%	105%	113%	93.8%	95%	93.7%	97.6%	85.9%	85.5%	105%	98.5%	108%	106%	99.1%	87.3%	96%	98.4%	87.4%	86.3%	85.6%
